Reference: patent publication US20260364184A1, “COMPOUND BASED ON OXOISOINDOLINYL-SUBSTITUTED TETRAHYDROPYRIMIDINE-DIONE AND USE THEREOF” (GLUETACS THERAPEUTICS (SHANGHAI) CO., LTD., priority 2023, published 2026)

What was measured:
[1] = target: T1, human Cereblon WT GST-tagged protein (CRBN) (Homo sapiens, UniProt Q96SW2); experiment: CRBN binding by HTRF (Cereblon binding kit); details: for inhibition at 0.5 µM: read-out: Inhibition Rate at 0.5 μM (%); for inhibition at 2 µM: read-out: Inhibition Rate at 2 μM (%)
T1 construct: purchased CISBIO 64BDCRBNPEH
T1 sequence (Q96SW2 whole entry): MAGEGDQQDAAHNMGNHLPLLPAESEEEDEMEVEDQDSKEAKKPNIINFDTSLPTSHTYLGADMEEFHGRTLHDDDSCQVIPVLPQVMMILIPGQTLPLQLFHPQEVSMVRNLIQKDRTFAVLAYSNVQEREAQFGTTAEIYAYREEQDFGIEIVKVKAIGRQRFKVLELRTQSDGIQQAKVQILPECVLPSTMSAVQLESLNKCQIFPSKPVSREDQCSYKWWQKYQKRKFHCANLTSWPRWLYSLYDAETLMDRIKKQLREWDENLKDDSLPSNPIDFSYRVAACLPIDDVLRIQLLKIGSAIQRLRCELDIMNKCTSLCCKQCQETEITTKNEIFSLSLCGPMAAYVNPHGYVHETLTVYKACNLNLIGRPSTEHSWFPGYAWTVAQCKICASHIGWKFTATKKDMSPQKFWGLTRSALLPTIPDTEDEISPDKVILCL
How it was run: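 GST-tagged human Cereblon WT was incubated 3 h at room temperature with compound, thalidomide-Re tracer and Eu anti-GST antibody. Final compound concentrations were 10 to 0.00064 µM (7 points) or 2 and 0.5 µM. Inhibition rate was calculated from HTRF 665/620 nm ratios versus solvent and blank controls.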

IRAK4 = target: T2, IRAK4 (Homo sapiens, UniProt Q9NWZ3); experiment: Western blot degradation of IRAK4; type: cell-based; details: hPBMC Cell; 24 hours
T2 construct: expression of target proteins in cells; endogenous in cells
T2 sequence (Q9NWZ3 1-460): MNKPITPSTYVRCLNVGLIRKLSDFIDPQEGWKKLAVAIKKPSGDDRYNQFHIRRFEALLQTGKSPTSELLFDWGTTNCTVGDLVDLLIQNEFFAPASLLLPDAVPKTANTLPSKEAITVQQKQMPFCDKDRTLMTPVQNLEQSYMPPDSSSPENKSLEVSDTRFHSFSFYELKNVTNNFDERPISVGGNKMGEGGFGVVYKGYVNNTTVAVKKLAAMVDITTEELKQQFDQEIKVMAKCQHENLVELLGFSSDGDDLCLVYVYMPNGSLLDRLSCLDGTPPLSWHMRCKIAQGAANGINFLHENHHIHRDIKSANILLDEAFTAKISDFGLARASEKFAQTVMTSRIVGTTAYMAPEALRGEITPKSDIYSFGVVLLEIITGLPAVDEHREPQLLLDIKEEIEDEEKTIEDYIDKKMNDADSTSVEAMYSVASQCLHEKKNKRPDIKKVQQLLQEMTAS
How it was run: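 Cells treated with compound, lysed, and target protein detected by Western blot (SDS-PAGE, nitrocellulose transfer). DC50 taken as the concentration giving band grayscale half that of DMSO control, estimated by concentration-response fitting; remaining protein (%) from target band normalised to internal control band; degradation (%) = 1 − remaining.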

| SMILES | inhibition at 0.5 µM [1] | inhibition at 2 µM [1] | Degradation of substrate protein IRAK4 (substrate protein remaining %) (IRAK4) | Inhibition Rate at 0.5 μM (%) [1] | Inhibition Rate at 2 μM (%) [1] |
| --- | --- | --- | --- | --- | --- |
| N#Cc1ccc(O[C@H]2CC[C@H](NC(=O)c3ccc(N4CCC(CN5C[C@@H]6C[C@H]5CN6c5ccc6c(c5)C(=O)N(N5CCC(=O)NC5=O)C6=O)CC4)nn3)CC2)cc1Cl [GT-05226, N-((1r,4r)-4-(3-chloro-4-cyanophenoxy)cyclohexyl)-6-(4-(((1S,4S)-5-(2-(2,4-dioxotetrahydropyrimidin-1(2H)-yl)-1,3-dioxoisoindolin-5-yl)-2,5-diazabicyclo[2.2.1]heptan-2-yl)methyl)piperidin-1-yl)pyridazine-3-carboxamide] | 30 to 40% | 30 to 40% |  |  |  |
| N#Cc1ccc(O[C@H]2CC[C@H](NC(=O)c3ccc(N4CCC(CN5CC6CCC5CN6c5ccc6c(c5)C(=O)N(N5CCC(=O)NC5=O)C6=O)CC4)nn3)CC2)cc1Cl (stereo partly drawn) [GT-05832, N-((1r,4r)-4-(3-chloro-4-cyanophenoxy)cyclohexyl)-6-(4-((5-(2-(2,4-dioxotetrahydropyrimidin-1(2H)-yl)-1,3-dioxoisoindolin-5-yl)-2,5-diazabicyclo[2.2.2]octan-2-yl)methyl)piperidin-1-yl)pyridazine-3-carboxamide] | 30 to 40% | 40 to 53% |  |  |  |
| O=C1CCN(N2C(=O)c3ccc(N4C5CC4CN(C[C@H]4CC[C@H](n6cc(NC(=O)c7cnn8ccc(N9C[C@H]%10C[C@@H]9CO%10)nc78)c(C(F)F)n6)CC4)C5)cc3C2=O)C(=O)N1 [GT-05242, 5-((1R,4R)-2-oxa-5-azabicyclo[2.2.1]heptan-5-yl)-N-(3-(difluoromethyl)-1-((1r,4R)-4-((6-(2-(2,4-dioxotetrahydropyrimidin-1(2H)-yl)-1,3-dioxoisoindolin-5-yl)-3,6-diazabicyclo[3.1.1]heptan-3-yl)methyl)cyclohexyl)-1H-pyrazol-4-yl)pyrazolo[1,5-a]pyrimidine-3-carboxamide] | 30 to 40% | 53 to 60% | A (0%≤substrate protein remaining %≤80%) |  |  |
| CC1(C)[C@H](NC(=O)c2ccc(N3CCC(CN4CC5CCC4CN5c4ccc5c(c4)C(=O)N(N4CCC(=O)NC4=O)C5=O)CC3)nc2)C(C)(C)[C@H]1Oc1ccc(C#N)c(Cl)c1 (stereo partly drawn) [GT-05834, N-((1r,3r)-3-(3-chloro-4-cyanophenoxy)-2,2,4,4-tetramethylcyclobutyl)-6-(4-((5-(2-(2,4-dioxotetrahydropyrimidin-1(2H)-yl)-1,3-dioxoisoindolin-5-yl)-2,5-diazabicyclo[2.2.2]octan-2-yl)methyl)piperidin-1-yl)nicotinamide] | 30 to 40% | 20 to 30% |  |  |  |

Other lines, results leading:

| inhibition at 0.5 µM [1] | inhibition at 2 µM [1] | Degradation of substrate protein IRAK4 (substrate protein remaining %) (IRAK4) | Inhibition Rate at 0.5 μM (%) [1] | Inhibition Rate at 2 μM (%) [1] | SMILES |
| --- | --- | --- | --- | --- | --- |
|  |  | A (0%≤substrate protein remaining %≤80%) | a3 (30% < a3 ≤ 40%) | a6 (60% < a6 ≤ 80%) | O=C1CCN(N2Cc3cc(CN4CCC(n5cc(NC(=O)c6coc(-c7ccnc(NCC8CC8)c7)n6)c(C(F)F)n5)CC4)ccc3C2=O)C(=O)N1 [GT-04951, 2-(2-((cyclopropylmethyl)amino)pyridin-4-yl)-N-(3-(difluoromethyl)-1-(1-((2-(2,4-dioxotetrahydropyrimidin-1(2H)-yl)-1-oxoisoindolin-5-yl)methyl)piperidin-4-yl)-1H-pyrazol-4-yl) oxazole-4-carboxamide] |
| 10 to 20% | 60 to 80% | A (0%≤substrate protein remaining %≤80%) |  |  | CC(C)(O)c1cc2nc(C3CCN(Cc4ccc5c(c4)CN(N4CCC(=O)NC4=O)C5=O)CC3)oc2cc1NC(=O)c1cccc(C(F)(F)F)n1 [GT-05748, N-(2-(1-((2-(2,4-dioxotetrahydropyrimidin-1(2H)-yl)-1-oxoisoindolin-5-yl)methyl)piperidin-4-yl)-5-(2-hydroxypropan-2-yl)benzo[d]oxazol-6-yl)-6-(trifluoromethyl) picolinamide] |
| 20 to 30% | 53 to 60% | A (0%≤substrate protein remaining %≤80%) |  |  | O=C1CCN(N2Cc3cc(CN4CCC(n5cc(NC(=O)c6cnn7ccc(N8CCOCC8)nc67)c(C(F)F)n5)CC4)ccc3C2=O)C(=O)N1 [GT-05749] |
|  |  | A (0%≤substrate protein remaining %≤80%) | a2 (20% < a2 ≤ 30%) | a6 (60% < a6 ≤ 80%) | O=C1CCN(N2Cc3cc(CN4CCC(n5cc(NC(=O)c6cnn7ccc(N8C[C@H]9C[C@@H]8CO9)nc67)c(C(F)F)n5)CC4)ccc3C2=O)C(=O)N1 [GT-05028, 5-((1R,4R)-2-oxa-5-azabicyclo[2.2.1]heptan-5-yl)-N-(3-(difluoromethyl)-1-(1-((2-(2,4-dioxotetrahydropyrimidin-1(2H)-yl)-1-oxoisoindolin-5-yl)methyl)piperidin-4-yl)-1H-pyrazol-4-yl)pyrazolo[1,5-a]pyrimidine-3-carboxamide] |
| 20 to 30% | 60 to 80% | A (0%≤substrate protein remaining %≤80%) |  |  | O=C1CCN(N2C(=O)c3cccc(N4CCC(CN5CCC(n6cc(NC(=O)c7cnn8ccc(N9C[C@H]%10C[C@@H]9CO%10)nc78)c(C(F)F)n6)CC5)CC4)c3C2=O)C(=O)N1 [GT-05285, 5-((1R,4R)-2-oxa-5-azabicyclo[2.2.1]heptan-5-yl)-N-(3-(difluoromethyl)-1-(1-((1-(2-(2,4-dioxotetrahydropyrimidin-1(2H)-yl)-1,3-dioxoisoindolin-4-yl)piperidin-4-yl)methyl)piperidin-4-yl)-1H-pyrazol-4-yl)pyrazolo[1,5-a]pyrimidine-3-carboxamide] |
